Read-outs that look alike come from different tables or passages of the source.

For data set [1] the following is noted: cited from earlier work; for stability of the form (in words): as reported in US 2006/0287528 or US 2007/0021430; for conversion into crystalline sitagliptin phosphate monohydrate: US 2007/0021430.
Data set [2] can be described thus: Stability studies of Form V bulk material and tablets on storage, stability-indicating HPLC. Format: physicochemical. Conditions: bulk material. The method, then: The stability of Form V of sitagliptin phosphate bulk material and tablets is assessed by storing samples for up to 12 weeks at 25° C./60% RH or up to 3 weeks at 40° C./75% RH. Changes are monitored using a stability-indicating HPLC method. Results were calculated by normalized peak area (npa). Degradants are identified by comparison of their relative retention times against impurity standards.

Data set [3] in a line: Thermal phase stability of Form V on heating. Format: physicochemical. Conditions: heating up to 41° C. The source says: Additionally, Form V has lower water content, good material flow characteristic and better chemical stability.
Data set [4] can be described thus: Solubility of sitagliptin phosphate in water and polar organic solvents. Format: physicochemical. The source says: In a preferred aspect, Form V of sitagliptin phosphate may be prepared by slurring starting material, crude or pure sitagliptin phosphate, anhydrate or solvate, which can be obtained according to the procedures described in U.S. patent application 2005/0032804 with a polar organic solvent or a mixture of two or more polar organic solvents under heat. The sitagliptin phosphate is soluble in water, but not soluble in polar organic solvents. The preferred polar organic solvent is methanol or acetone. The concentration of sitagliptin phosphate within the solution may range from about 0.1% by weight to the saturation point. This concentration will, of course, vary depending upon the temperature at which the co-solvent solution is held, with warmer temperatures generally allowing for the preparation of more concentrated solutions of sitagliptin phosphate. Preferably, the concentration (w/w %) of sitagliptin phosphate starting material in solution is about 0.5-15%, preferably about 1-10%, more preferably about 1.5-5%. The volume ratio of water to methanol or acetone is about 1:0.1-200, preferably about 1:2-30, more preferably about 1:3-10, most preferably about 1:4-6. […]

As for `N[C@@H](CC(=O)N1CCn2c(nnc2C(F)(F)F)C1)Cc1cc(F)c(F)cc1F.O=P(O)(O)O` [Form I], the “conversion on grinding or compaction” value in data set [1] (grinding or compaction, US 2006/0287528) was “can be converted into Form III”.

For the molecule `N[C@@H](CC(=O)N1CCn2c(nnc2C(F)(F)F)C1)Cc1cc(F)c(F)cc1F.O=P(O)(O)O` [Form V, (2R)-4-oxo-4-[3-(trifluoromethyl)-5,6-dihydro[1,2,4]triazolo[4,3-α]pyrazin-7(8H)yl]-1-(2,4,5-trifluorophenyl)butan-2-amine dihydrogenphosphate], in data set [2] (elevated temperature and humidity (40° C./75%)), the “time for which polymorph (phase) and chemical stability was demonstrated” value was “over 3 weeks”. The “time stable with respect to polymorphic form (phase) stability and formation of known and unknown degradants” value in data set [2] (stored under normal conditions of temperature and humidity) is reported as “over 3 months”. Further, in data set [3], the “phase transformation on heating” value is given as “does not undergo a phase transformation”.

Take `N[C@@H](CC(=O)N1CCn2c(nnc2C(F)(F)F)C1)Cc1cc(F)c(F)cc1F.O=P(O)(O)O` [ethanol solvate]: the “stability of the form (in words)” value in data set [1] is reported as “not a stable form”.

Consider `N[C@@H](CC(=O)N1CCn2c(nnc2C(F)(F)F)C1)Cc1cc(F)c(F)cc1F.O=P(O)(O)O` [Form IV], for which the “conversion into crystalline sitagliptin phosphate monohydrate” value in data set [1] (ambient conditions) was “slowly”; in data set [1] (high relative humidity (98%) at room temperature), “rapidly”. Further, the “stability of the form (in words)” value in data set [1] is “metastable”.

For the molecule `N[C@@H](CC(=O)N1CCn2c(nnc2C(F)(F)F)C1)Cc1cc(F)c(F)cc1F.O=P(O)(O)O` [sitagliptin phosphate, dihydrogenphosphate salt of (2R)-4-oxo-4-[3-(trifluoromethyl)-5,6-dihydro[1,2,4]triazolo[4,3-α]pyrazin-7(8H)yl]-1-(2,4,5-trifluorophenyl)butan-2-amine], in data set [4] (polar organic solvents (e.g. methanol, acetone)), the “solubility in polar organic solvents” value was “not soluble”. The solubility in water entry in data set [4] (water) is recorded as “soluble”.

As for `N[C@@H](CC(=O)N1CCn2c(nnc2C(F)(F)F)C1)Cc1cc(F)c(F)cc1F.O=P(O)(O)O` [Form III], the “temperature below which the form is stable” value in data set [1] (US 2006/0287528) is “below 34 °C”.

With `N[C@@H](CC(=O)N1CCn2c(nnc2C(F)(F)F)C1)Cc1cc(F)c(F)cc1F.O=P(O)(O)O` [Form II], the “stability of the form (in words)” value in data set [1] is reported as “metastable”. Moreover, the “time to convert to anhydrous Form I or Form III or mixtures thereof” value in data set [1] (at about 45° C., US 2006/0287528) is “about 2 hours”.

The record behind these values is patent US20090247532A1, “Crystalline polymorph of sitagliptin phosphate and its preparation” (Mae De Ltd., priority 2008, published 2009).
